According to ChEMBL document CHEMBL1141339, “Studies on terpenoids produced by actinomycetes: oxaloterpins A, B, C, D, and E, diterpenes from Streptomyces sp. KO-3988” (2007):

Key:
Bacillus subtilis = test: Antibacterial activity against Bacillus subtilis ATCC 43223; type: functional
Staphylococcus aureus = test: Antibacterial activity against Staphylococcus aureus ATCC 29213; type: functional

For `C=C[C@@]1(C)CC=C2[C@@H](CC[C@@H]3C(C)(C)[C@H](OC(=O)C(=O)N(O)C(C)=O)CC[C@@]23C)C1` [OXALOTERPIN A], which IC (Bacillus subtilis) is on record?
Its IC is 1.9 nmol/mL.

What about the IC (Staphylococcus aureus) of the same compound?
The IC was 3.7 nmol/mL.
